Here are results for one compound from publication PMC4992173, “Divergent synthesis and identification of the cellular targets of deoxyelephantopins” (Nature Communications, 2016).

The test system of the assay is proteins enriched from MCF7 cells by probe 24c. Briefly: SILAC competitive profiling with probe 24c in MCF7 lysates, proteome-wide. To be noted: 20 μM deoxyelephantopin, 10 μM 24c, SILAC ratio<0.30. It is filed as binding, human. The text has this:
In our efforts to determine the direct molecular targets of deoxyelephantopin we first performed a gel-based competitive in situ proteomic profiling assay[41] […] While the greater conformational flexibility of probe 24c could potentially lead to more promiscuous target engagement relatively to deoxyelephantopin, it was favoured based on the fact that an alkyne moiety appended to the rigid scaffold of deoxyelephantopin may hinder some of its interactions. MCF7 cells were pretreated with various concentrations of deoxyelephantopin for 4 h, harvested, lysed and the lysates were treated with the fluorogenic probe 24c-Cy3 (10 μM; Supplementary Fig. 10). […] Furthermore, cells were pretreated with 20 μM concentration of deoxyelephantopin or 24c and the proteomic profiles were compared (Fig. 6b, Supplementary Fig. 11). Multiple bands were detected that were equally competed by both DEP and 24c, thus again confirming that 24c can be used as an acceptable clickable analogue of deoxyelephantopin in pulldown assays. Having established the optimal labelling conditions by SDS–PAGE, we next carried out a mass spectrometry-based competitive profiling assay[42] coupled with the method of stable isotope labelling of amino acids in culture (SILAC)[43]. […]
visualization were performed as described above. Images were quantified with ImageJ and kinetics values were calculated using GraphPad Prism (V6.03). […]

SMILES strings stand for the structures.

Consider `C=C(C)C(=O)O[C@H]1CC2=C[C@@H](C/C(C)=C/[C@H]3OC(=O)C(=C)[C@H]13)OC2=O` [deoxyelephantopin], for which the “competition of probe 24c labelling (11 proteins)” value was over 70%.
